Test results: PubChem BioAssay (NCI)
Several values for one entry are separate records, joined by “and”; a condition that tells them apart may be missing. Equal values may be shown once.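 Following 48 hours of exposure in 96-well plates, responses at five concentrations were used to interpolate endpoints linearly. Abbreviation: GI50, concentration required for 50% inhibition of growth. TGI denotes the concentration required for complete inhibition of growth.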

Tests used:
Assay in all cases: inhibition of tumour cell growth, NCI panel, 48 h
ACHN renal = test system: ACHN renal
EKVX NSCLC = test system: EKVX NSCLC
HOP-62 NSCLC = test system: HOP-62 NSCLC
K-562 leukemia = test system: K-562 leukemia
MCF7 breast = test system: MCF7 breast
MDA-MB-231 breast = test system: MDA-MB-231 breast
RPMI-8226 leukemia = test system: RPMI-8226 leukemia
SF-295 CNS = test system: SF-295 CNS
SF-539 CNS = test system: SF-539 CNS
SK-MEL-2 melanoma = test system: SK-MEL-2 melanoma
SNB-19 CNS = test system: SNB-19 CNS

Row | Structure (SMILES) | TGI (ACHN renal) | GI50 (EKVX NSCLC) [µM] | TGI (EKVX NSCLC) | GI50 (HOP-62 NSCLC) [µM] | TGI (HOP-62 NSCLC) | TGI (K-562 leukemia) [µM] | TGI (MCF7 breast) | GI50 (MDA-MB-231 breast) [µM] | TGI (MDA-MB-231 breast) | TGI (RPMI-8226 leukemia) [µM] | GI50 (SF-295 CNS) [µM] | TGI (SF-295 CNS) | GI50 (SF-539 CNS) [µM] | TGI (SF-539 CNS) | GI50 (SK-MEL-2 melanoma) [µM] | TGI (SK-MEL-2 melanoma) | GI50 (SNB-19 CNS) [µM] | TGI (SNB-19 CNS) | GI50 (ACHN renal) [µM]
1 | NCCNc1ccc(NCCN)c2c1C(=O)c1c(O)ccc(O)c1C2=O | 0.117 µM and 0.0596 µM | 0.112 | 1.3 µM and 0.435 µM | 0.0189 | 0.147 µM and 0.0642 µM | 0.14 | 4.51 µM and 1.27 µM | 0.146 | 2.14 µM and 0.621 µM | 0.692 | < 0.0131 | 0.414 µM and 0.0618 µM | < 0.0112 | 0.932 µM and 0.261 µM | 0.345 | 1.31 µM and 1.33 µM | 0.0145 | 1.14 µM and 0.254 µM | 
2 | CC(=O)c1ccc(Nc2nc3ccccc3c3occc23)cc1 | 60.2 µM |  | > 100 µM |  | 36.2 µM |  | 56.6 µM |  | > 100 µM | 29.6 |  | 41.1 µM |  | 53.4 µM |  | 48.6 µM |  | > 100 µM | 
3 | CC(=O)C(C(=O)C(=O)Nc1cc(Cl)c(Cl)cc1Cl)c1csc(N)n1 (configuration not stated) | > 100 µM |  | > 100 µM |  | > 100 µM | > 100 |  |  |  | > 100 |  | > 100 µM |  | > 100 µM |  | > 100 µM |  | > 100 µM | 
4 | CCCc1cn2c(/C=N/N=C(N)N)c(-c3ccc([N+](=O)[O-])cc3)nc2s1 | 2.88 µM |  | 3.62 µM |  | 3.16 µM |  |  |  | 3.51 µM | 2.76 |  | 2.16 µM |  | 9.84 µM |  | 3.55 µM |  | 2.9 µM | 
5 | O=[N+]([O-])c1ccc(C2NC(=S)NC3c4cc([N+](=O)[O-])ccc4CCCC23)cc1 (configuration not stated) | > 100 µM |  | > 100 µM |  | > 100 µM | > 100 | > 100 µM |  | > 100 µM | > 100 |  | > 100 µM |  | > 100 µM |  | > 100 µM |  | > 100 µM | 
6 | COC1=C(OC)C(=O)C(C/C=C/c2c(Cl)nc3sccn23)=C(C)C1=O | 36.1 µM |  | 25.1 µM |  | 32.1 µM | 68.3 | 52.8 µM |  | 25.3 µM | 27.5 |  | 21 µM |  | 31.7 µM |  | 48.3 µM |  | 27.6 µM | 
7 | CCCCCC1CC(C(C)=O)CN1c1ccc(F)cc1 (configuration not stated) | > 100 µM |  | > 100 µM |  |  |  |  |  |  |  |  | 63.3 µM |  | > 100 µM |  | > 100 µM |  | > 10 µM | 
8 | CCn1c(=O)c2c3ccc(O)cc3[nH]c2c2ccc(O)cc21 | > 100 µM |  | > 100 µM |  | > 100 µM | > 100 | > 100 µM |  | > 100 µM |  |  | > 100 µM |  | > 100 µM |  |  |  | > 100 µM | 
9 | O=C(N/N=C/c1cc(Cl)cc(Cl)c1[O-])c1ccccc1O.O=C(N/N=C/c1cc(Cl)cc(Cl)c1[O-])c1ccccc1O.[Cu+2] | 1.57 µM |  |  |  | 0.901 µM | 0.545 |  |  |  |  |  | 1.26 µM | 0.306 | 1.02 µM | 0.746 | 2.1 µM |  | 2.05 µM | 
10 | Cn1cc(-c2csc(-c3cn(CCCN4CCCCC4)c4ccc(Br)cc34)n2)c2cccnc21 | 3 µM |  |  |  |  |  |  | 1.72 | 3.21 µM |  |  |  | 1.75 | 3.2 µM | 1.94 | 3.74 µM | 1.83 | 3.31 µM | 1.65
11 | C[N+]1(C)C/C(=C\C=C\c2ccccc2)C(=O)/C(=C/C=C/c2ccccc2)C1 | > 100 µM |  | > 87.4 µM |  | 46.3 µM | 36 | 38.4 µM |  | 36.1 µM | 10.9 |  | 81.7 µM |  | 33.9 µM |  | 64.2 µM |  | 27.5 µM | 
12 | O=[N+]([O-])c1cc(C(F)(F)F)cc2c1SC1=Nc3ccccc3CN12 |  |  | > 100 µM |  | > 100 µM | > 100 | > 100 µM |  |  | > 100 |  | > 100 µM |  | > 100 µM |  | > 100 µM |  | > 100 µM | 
13 | Nc1n[nH]c(N)n1 | > 10000 µM |  | > 7740 µM |  | 3550 µM | > 10000 | > 10000 µM |  | > 10000 µM | > 10000 |  | 7800 µM |  | 8860 µM |  | > 10000 µM |  | > 10000 µM | 
14 | O=C(N/N=C/c1cc(Cl)cc(Cl)c1[O-])c1ccccc1O.O=C(N/N=C/c1cc(Cl)cc(Cl)c1[O-])c1ccccc1O.[Fe+2] | 27.7 µM | 18.1 | 41.9 µM |  | 44.4 µM | > 100 |  |  |  |  |  | 33.9 µM | 10.4 | 28 µM | 14.9 | 35.5 µM |  | 46.2 µM | 
15 | NC1C2C=CC(C2)C1C(=O)O (configuration not stated) | > 100 µM |  | > 100 µM |  | > 100 µM | > 100 | > 100 µM |  | > 100 µM | > 100 |  | > 100 µM |  | > 100 µM |  | > 100 µM |  | > 100 µM | 
16 | CCC/C=C/C=C\C(=O)O[C@@H]1[C@@H](C)[C@]2(O)[C@@H]3C=C(C)C(=O)[C@H]3CC(COC(C)=O)=C[C@H]2[C@@H]2C(C)(C)[C@]12OC(C)=O |  |  | 105 µM |  | 33.8 µM | 128 | 83.1 µM |  |  | 95.8 |  | 39.5 µM |  | 83.5 µM |  | 104 µM |  | 114 µM | 
17 | O=C(N/N=C/c1cc(Cl)cc(Cl)c1[OH2+])c1ccncc1.O=S(=O)([O-])[O-].[Fe+2] | 28.1 µM |  | 29 µM |  | 34.9 µM | 51.4 |  |  |  | 5.98 |  | 35.3 µM |  | 36.4 µM | 82.9 | 94.9 µM |  | > 100 µM | 
18 | NCCCC(N)(C(=O)O)C(F)F (configuration not stated) |  |  | > 1260 µM |  | > 5000 µM | > 5000 | > 5000 µM |  |  | > 5000 |  | > 5000 µM |  | > 5000 µM |  | > 5000 µM |  | > 5000 µM | 
19 | Oc1ccccc1CNCc1ccccc1O | > 100 µM |  | > 100 µM |  | > 100 µM | > 100 | > 100 µM |  | > 100 µM | > 100 |  | > 100 µM |  | > 100 µM |  | > 100 µM |  | > 100 µM | 
20 | COc1cc2c(cc1OC)-c1cc3cc(OC)c(OC)cc3c(C)[n+]1CC2 (tested in a mixture with another compound) | > 100 µM |  | > 100 µM |  | > 100 µM |  | > 100 µM |  | > 100 µM | > 100 |  | > 100 µM |  | > 100 µM |  | > 100 µM |  | > 100 µM | 
21 | CCN(CC)CCCNC(=O)c1ccccc1Nc1c(Cl)cccc1Cl | 21.8 µM |  | 25 µM |  | 24.2 µM | 23 |  |  |  | 20.5 |  |  |  | 23.7 µM |  |  |  | 29.1 µM | 
22 | O=c1[nH]c(Br)nc2n[nH]nc12 | > 100 µM |  | > 100 µM |  | 94.8 µM | > 100 | > 100 µM |  | > 100 µM | > 100 |  | > 100 µM |  | 94.9 µM |  | > 100 µM |  | > 100 µM | 
